Literature values, collected in patent publication US20050250746A1, “Premenstrual dysphoric disorder medication” (priority 2004, published 2005).

What was measured:
[1] = tested on: Severe Premenstrual Syndrome
Premenstrual Syndrome = conditions: review of published research
[2] = tested on: Severe Premenstrual Syndrome or Premenstrual Dysphoric Disorder; conditions: continuous or intermittent dosing

Cc1nnc2n1-c1ccc(Cl)cc1C(c1ccccc1)=NC2 [alpazolam, Alprazolam]
reduction in daily symptom report scores ([1]; double-blind, versus placebo): 50%

CC(=O)[C@H]1CC[C@H]2[C@@H]3CCC4=CC(=O)CC[C@]4(C)[C@H]3CC[C@]12C [progesterone]
difference between progesterone and placebo (Premenstrual Syndrome): no clinically important difference between progesterone and placebo
effectiveness of progesterone therapy versus placebo ([1]; oral progesterone): no better than placebo

CN[C@H]1CC[C@@H](c2ccc(Cl)c(Cl)c2)c2ccccc21 [seratraline, Sertraline]
improvement versus placebo group [2]: improved significantly more than the placebo group
